Reference: patent publication US20050060764A1, “Mouse model for bone metabolism” (priority 2003, published 2005)
Entries after “also recorded” stand apart in the source; their conditions may differ. Strand notation (5' to 3'): a small letter for the sugar, then the base; units joined by * are phosphorothioate-linked, units joined directly phosphodiester-linked; [ ] holds rarer units or linkages, { } end groups; capitals alone tell only the bases. e = 2'-O-(2-methoxyethyl) (MOE); [5mC] = 5-methylcytosine; d = 2'-deoxy (DNA)

How the values were obtained:
RANKL mRNA [1] = assay: Antisense inhibition of RANKL mRNA expression followed by PTH treatment in primary mouse osteoblast cells: dose response (Table 8); type: cell-based; settings: for % RANKL mRNA inhibition: 10 nM PTH last 2 h, relative to PTH alone; for inhibition of PTH-induced increase in RANKL mRNA expression: primary mouse osteoblast cells, 63 nM, 125 nM, 250 nM, or 500 nM, 24 hours, FuGENE 6, 10 nM PTH last 2 hours
Protocol: Primary mouse osteoblasts were prepared from calvaria of neonatal mice purchased from Charles River Laboratories. […] Cells were not passaged. Cells were seeded onto 6-well plates (Falcon-Primaria #353846) at a density of 50,000 cells/well for use in antisense oligonucleotide transfection.
In a further embodiment of this invention, the effect of RANKL antisense oligonucleotides and PTH treatment on the expression of RANKL was determined in primary osteoblast cells isolated from mice skull caps.
ISIS 143624 ([…], SEQ ID NO: 348) was used as a control oligonucleotide. […] All cytidine residues are 5-methylcytidines.
Primary osteoblastic cells were transfected for 24 hours with either Isis 180819 (SEQ ID NO: 185) or the control oligo ISIS 143624 (SEQ ID NO: 348) at a dose of […], 125 nM, 250 nM, or 500 nM by the methods described herein but using the transfection reagent FuGENE 6 (Roche Applied Science, Indianapolis, Ind.). During the last 2 hours of oligonucleotide transfection, the cells were treated with 10 nM PTH. The RNA was then harvested and the expression levels of […] were measured by the methods described herein. The results are expressed as percent inhibition relative to PTH treatment alone and represent the average from three experiments.

RANKL mRNA [2] = assay: as above; type: cell-based; settings: 63 nM oligonucleotide 24 h, 10 nM PTH last 2 h, relative to PTH alone
RANK mRNA = assay: Antisense inhibition of RANK mRNA expression in proximal tibia after PTH infusion in mice: specificity and dose response (Table 15); type: in vivo, mouse; settings: then 24 h PTH, proximal tibia
Protocol: (§1) In accordance with the present invention, the specificity of RANK inhibition by a RANK antisense oligonucleotide was compared to that of an 8-base pair mismatch oligonucleotide.
(§2) ISIS 181080 ([…], SEQ ID NO: 357) is an antisense oligonucleotide targeted to mouse RANK. ISIS 208565 ([…], SEQ ID NO: 358) is an 8-base pair mismatch oligonucleotide. […] All cytidine residues are 5-methylcytidines.
(§3) Female Swiss-Webster mice (5-8 wks old) fed a low-calcium diet were treated for two weeks with either ISIS 181080 or ISIS 208565. The dose of oligonucleotide was either 40 mg/kg, 30 mg/kg, 20 mg/kg, or 10 mg/kg. After the 2-week treatment with oligonucleotides, the mice were infused with PTH by subcutaneously implanted mini-pumps at a dose of 4 ug/100 g over 24 hours. A group of control mice were dosed with either saline, PTH alone (1 ug/100 g/6 hr) or calcitonin (400 ng) plus PTH (1 ug/100 g/6 hr). After 24 hours of PTH infusion (total PTH delivery of 4 ug/100 g), the mice were sacrificed and measurements were made of serum calcium with the Sigma Diagnostics Calcium Kit (Sigma-Aldrich) and RANK mRNA expression in proximal tibia (as described in other examples herein). The results shown in Table 15 are the average from four mice per group. Percent inhibition of RANK mRNA is normalized to PTH treatment alone. […] The data also illustrate that these effects are occurring due to an antisense mechanism.

[3] = Serum calcium concentration after PTH infusion in mice: specificity and dose response of RANK antisense oligonucleotide (Table 15); type: in vivo, mouse; settings: then 24 h PTH
Protocol: as §1, §2, §3

RANKL mRNA [4] = assay: RANKL mRNA % inhibition after PTH infusion in mice treated with RANKL antisense oligonucleotides for two weeks (Table 10); type: in vivo, mouse; settings: then 24 h PTH infusion, normalized to PTH alone
Protocol: (§4) Female Swiss-Webster (5-8 wks old) mice fed a low-calcium diet were dosed subcutaneously for two weeks with either the oligonucleotides ISIS 180819 (SEQ ID NO: 185) or 180814 (SEQ ID NO: 180) at concentrations of 5 mg/kg, 15 mg/kg, 30 mg/kg, or 40 mg/kg. A control group of mice were treated with calcitonin (400 ng) plus PTH (1 ug/100 g/6 hr), PTH alone (1 ug/100 g/6 hr) or saline. Treatment with oligonucleotides was followed with infusion of PTH by subcutaneously implanted mini-pumps at a dose of 1 ug/100 g/6 hr. After 24 hours of PTH infusion (total PTH delivery of 4 ug/100 g), the mice were sacrificed and the serum calcium concentration was measured with the Sigma Diagnostics Calcium Kit (Sigma-Aldrich). The data, summarized in Table 10 are averages from eight mice. Percent mRNA inhibition is normalized to PTH alone treatment.

mouse RANKL mRNA = assay: Antisense inhibition of mouse RANKL mRNA levels in C2C12 cells, quantitative real-time PCR (Table 2); type: cell-based; parameters: concentration or dose not given beside the values; settings: averages from three experiments
Procedure, shortened: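 C2C12 cells seeded at ~10,000 cells/cm^2, treated with antisense oligonucleotides (all C as 5-methylcytidine) in triplicate and harvested 16-24 h later. Mouse RANKL mRNA quantified by real-time RT-PCR with a FAM/TAMRA probe, with mouse GAPDH (JOE/TAMRA probe) as reference.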

[5] = Serum calcium concentration 24 hours after PTH infusion in mice treated with RANKL antisense oligonucleotides (Table 10); type: in vivo, mouse; settings: for serum calcium: then 24 h PTH infusion
Protocol: In accordance with the present invention, the effect of antisense oligonucleotide inhibition on PTH-induced serum calcium concentration increase was measured in mice. The serum calcium concentration in mice was measured as a function of antisense oligonucleotide dose. Calcitonin, a known bone antiresorptive agent, was used as a control for antiresorptive activity.
as §4

RANKL mRNA [6] = assay: Antisense inhibition of RANKL mRNA in proximal tibia and calvaria of mice after PTH infusion: dose response and delivery method (Table 9); type: in vivo, mouse
Protocol: In accordance with the present invention, the levels of RANKL in the proximal tibia and calvaria in mice were measured following antisense oligonucleotide treatment and PTH infusion.
Female Swiss-Webster mice (5-8 wks old) fed a low-calcium diet were treated with ISIS 180819 (SEQ ID NO: 185) by subcutaneous injection at a dose of either 30 mg/kg or 50 mg/kg or intraperitoneal injection at a dose of either 15 mg/kg, 30 mg/kg or 50 mg/kg. After 2 weeks of daily treatment, the mice were infused with PTH at a dose of 1 ug/100 g/6 hr. After 24 hours of PTH infusion (total PTH delivery of 4 ug/100 g), the mice were sacrificed. The proximal tibia and calvaria were isolated and the level of RANKL mRNA expression was determined in each using two different primer-probe sets to confirm the results. The first primer-probe set was #1207, consisting of […] (forward primer, SEQ ID NO: 349), […] (reverse primer, SEQ ID NO: 350) and […] (probe, SEQ ID NO: 351). The second primer-probe set was #1015, consisting of […] (forward primer, SEQ ID NO: 352), […] (reverse primer, SEQ ID NO: 353) and […] (probe, SEQ ID NO: 354). The results are expressed as percent inhibition relative to PTH treatment alone and represent the average of eight mice per group.

[7] = 5 mg/kg subcutaneously two weeks
[8] = 15 mg/kg subcutaneously two weeks
[9] = 30 mg/kg subcutaneously two weeks
[10] = 40 mg/kg subcutaneously two weeks

Substance: 143624 (antisense eT*eG*e[5mC]*eT*e[5mC]*dA*dG*d[5mC]*dG*dA*dG*dT*dG*dT*dG*e[5mC]*e[5mC]*eA*eG*e[5mC]) [compound 143624]
- % RANKL mRNA inhibition (RANKL mRNA [1]; 125 nM oligonucleotide 24 h): 3%
- % RANKL mRNA inhibition (RANKL mRNA [1]; 250 nM oligonucleotide 24 h): 0%
- % RANKL mRNA inhibition (RANKL mRNA [1]; 500 nM oligonucleotide 24 h): 9%
- % RANKL mRNA inhibition (RANKL mRNA [2]): 4%

Substance: TCCTCGAGAGGTCTCCTTGC (antisense eT*e[5mC]*e[5mC]*eT*e[5mC]*dG*dA*dG*dA*dG*dG*dT*d[5mC]*dT*d[5mC]*e[5mC]*eT*eT*eG*e[5mC]) [ISIS 208565, 8-base pair mismatch oligonucleotide, 2′-MOE gapmer, reference compound]
- RANK mRNA % inhibition (normalized to PTH) (RANK mRNA; 10 mg/kg two weeks): 0%
- RANK mRNA % inhibition (normalized to PTH) (RANK mRNA; 20 mg/kg two weeks): 0%
- RANK mRNA % inhibition (normalized to PTH) (RANK mRNA; 30 mg/kg two weeks): 19%
- RANK mRNA % inhibition (normalized to PTH) (RANK mRNA; 40 mg/kg two weeks): 7%
- serum calcium ([3]; 10 mg/kg two weeks): 21 mg/dL
- serum calcium ([3]; 20 mg/kg two weeks): 17 mg/dL
- serum calcium ([3]; 30 mg/kg two weeks): 18 mg/dL
- serum calcium ([3]; 40 mg/kg two weeks): 16 mg/dL

Substance: TGCTCAGCGAGTGTGCCAGC (sugars by position and backbone not given here; further chemistry not fully specified) [ISIS 143624, control oligonucleotide, 2′-MOE gapmer, reference compound]
- inhibition of PTH-induced increase in RANKL mRNA expression (RANKL mRNA [1]): unable to reduce RANKL mRNA levels

Substance: gtcttacacatgtatagaca (antisense eG*eT*e[5mC]*eT*eT*dA*d[5mC]*dA*d[5mC]*dA*dT*dG*dT*dA*dT*eA*eG*eA*e[5mC]*eA) [ISIS 180814, 2′-MOE gapmer targeted to mouse RANKL]
- RANKL mRNA, % inhib (RANKL mRNA [4]; [7]): 0 % inhib
- RANKL mRNA, % inhib (RANKL mRNA [4]; [8]): 0 % inhib
- RANKL mRNA, % inhib (RANKL mRNA [4]; [9]): 27 % inhib
- RANKL mRNA, % inhib (RANKL mRNA [4]; [10]): 6 % inhib
- % INHIB (inhibition of mouse RANKL mRNA levels) (mouse RANKL mRNA): at least 40%
- serum calcium [5, 7]: 22 mg/dL
- serum calcium [5, 8]: 20 mg/dL
- serum calcium [5, 9]: 18 mg/dL
- serum calcium [5, 10]: 19 mg/dL

Substance: tgcaggtcccagcgcaatgt (antisense eT*eG*e[5mC]*eA*eG*dG*dT*d[5mC]*d[5mC]*d[5mC]*dA*dG*d[5mC]*dG*d[5mC]*eA*eA*eT*eG*eT) [ISIS 180819, 2′-MOE gapmer targeted to mouse RANKL]
- RANKL mRNA, % inhib (RANKL mRNA [4]; [7]): 0 % inhib
- RANKL mRNA, % inhib (RANKL mRNA [4]; [8]): 0 % inhib
- RANKL mRNA, % inhib (RANKL mRNA [4]; [9]): 0 % inhib
- % INHIB (inhibition of mouse RANKL mRNA levels) (mouse RANKL mRNA): at least 40%
- serum calcium [5, 7]: 21 mg/dL
- serum calcium [5, 8]: 17 mg/dL
- serum calcium [5, 9]: 19 mg/dL
- PTH-induced increase in serum calcium concentration ([5]; mice, s.c. two weeks 5, 15, 30 or 40 mg/kg, 24 hours PTH infusion): lessen the PTH-induced increase in serum calcium concentration
- inhibition of PTH-induced increase in RANKL mRNA expression (RANKL mRNA [1]): able to inhibit the PTH-induced increase in RANKL mRNA expression
- % Inhibition of RANKL (RANKL mRNA [6]; intraperitoneal injection 15 mg/kg daily 2 weeks, proximal tibia, primer-probe set 1015): 2%
- % Inhibition of RANKL (RANKL mRNA [6]; intraperitoneal injection 15 mg/kg daily 2 weeks, proximal tibia, primer-probe set 1207): 0%
- % Inhibition of RANKL (RANKL mRNA [6]; intraperitoneal injection 30 mg/kg daily 2 weeks, calvaria, primer-probe set 1015): 39%
- % Inhibition of RANKL (RANKL mRNA [6]; intraperitoneal injection 30 mg/kg daily 2 weeks, calvaria, primer-probe set 1207): 24%
- % Inhibition of RANKL (RANKL mRNA [6]; intraperitoneal injection 30 mg/kg daily 2 weeks, proximal tibia, primer-probe set 1015): 0%
- % Inhibition of RANKL (RANKL mRNA [6]; intraperitoneal injection 30 mg/kg daily 2 weeks, proximal tibia, primer-probe set 1207): 0%
- % Inhibition of RANKL (RANKL mRNA [6]; intraperitoneal injection 50 mg/kg daily 2 weeks, calvaria, primer-probe set 1015): 51%
- % Inhibition of RANKL (RANKL mRNA [6]; intraperitoneal injection 50 mg/kg daily 2 weeks, calvaria, primer-probe set 1207): 54%
- % Inhibition of RANKL (RANKL mRNA [6]; intraperitoneal injection 50 mg/kg daily 2 weeks, proximal tibia, primer-probe set 1015): 21%
- % Inhibition of RANKL (RANKL mRNA [6]; intraperitoneal injection 50 mg/kg daily 2 weeks, proximal tibia, primer-probe set 1207): 13%
- inhibition of PTH-induced increase in RANKL mRNA expression in the proximal tibia and calvaria (RANKL mRNA [6]; mice, 2 weeks daily s.c. 30 or 50 mg/kg or i.p. 15, 30 or 50 mg/kg, 24 hours PTH infusion): capable of inhibiting the PTH-induced increase in RANKL mRNA expression; also recorded: greater inhibition observed in the calvaria
- % Inhibition of RANKL (RANKL mRNA [6]; subcutaneous injection 30 mg/kg daily 2 weeks, calvaria, primer-probe set 1015): 38%
- % Inhibition of RANKL (RANKL mRNA [6]; subcutaneous injection 30 mg/kg daily 2 weeks, calvaria, primer-probe set 1207): 38%
- % Inhibition of RANKL (RANKL mRNA [6]; subcutaneous injection 30 mg/kg daily 2 weeks, proximal tibia, primer-probe set 1015): 5%
- % Inhibition of RANKL (RANKL mRNA [6]; subcutaneous injection 30 mg/kg daily 2 weeks, proximal tibia, primer-probe set 1207): 10%
- % Inhibition of RANKL (RANKL mRNA [6]; subcutaneous injection 50 mg/kg daily 2 weeks, calvaria, primer-probe set 1015): 60%
- % Inhibition of RANKL (RANKL mRNA [6]; subcutaneous injection 50 mg/kg daily 2 weeks, calvaria, primer-probe set 1207): 52%
- % Inhibition of RANKL (RANKL mRNA [6]; subcutaneous injection 50 mg/kg daily 2 weeks, proximal tibia, primer-probe set 1015): 32%
- % Inhibition of RANKL (RANKL mRNA [6]; subcutaneous injection 50 mg/kg daily 2 weeks, proximal tibia, primer-probe set 1207): 36%
